This is an account of results in patent publication US20240150377A1, “MODULATORS OF CYSTIC FIBROSIS TRANSMEMBRANE CONDUCTANCE REGULATOR” (VERTEX PHARMACEUTICALS INCORPORATED, priority 2020, published 2024).

One may read the EC50 as the concentration needed to bring the measured effect to its halfway point.

This test concerns the target T1, CFTR (Homo sapiens, UniProt P13569, DEL508-508).
T1 construct: endogenous in cells; host or cells: primary human bronchial epithelial cells from CF subjects (F508del/MF-HBE), differentiated at air-liquid interface
Put plainly: HBE2 assay: Ussing chamber assay of CFTR-mediated short-circuit currents. The test is classed as cell-based. To be noted: F508del/MF-HBE cells, 18-24 hours, 20% human serum; for Emax: read-out: HBE2 Max activity (%). The protocol: Ussing Chamber Assay of CFTR-Mediated Short-Circuit Currents
After four days the apical media was removed, and the cells were grown at an air liquid interface for >14 days prior to use.
To isolate the CFTR-mediated short-circuit (ISC) current, F508del/MF-HBE grown on Costar® Snapwell™ cell culture inserts were mounted in an Ussing chamber and the transepithelial ISC was measured under voltage-clamp recording conditions (Vhold=0 mV) at 37° C. […] The CFTR-mediated ISC (μA/cm^2) for each condition was determined from the peak forskolin response to the steady-state current following inhibition.
Identification of Corrector Compounds
The activity of the CFTR corrector compounds on the CFTR-mediated ISC was determined in Ussing chamber studies as described above.

Setting [1] is: 3 μM corrector, with 44 nM potentiator.

T1 sequence (P13569 with tags, fused parts or gaps DEL508-508): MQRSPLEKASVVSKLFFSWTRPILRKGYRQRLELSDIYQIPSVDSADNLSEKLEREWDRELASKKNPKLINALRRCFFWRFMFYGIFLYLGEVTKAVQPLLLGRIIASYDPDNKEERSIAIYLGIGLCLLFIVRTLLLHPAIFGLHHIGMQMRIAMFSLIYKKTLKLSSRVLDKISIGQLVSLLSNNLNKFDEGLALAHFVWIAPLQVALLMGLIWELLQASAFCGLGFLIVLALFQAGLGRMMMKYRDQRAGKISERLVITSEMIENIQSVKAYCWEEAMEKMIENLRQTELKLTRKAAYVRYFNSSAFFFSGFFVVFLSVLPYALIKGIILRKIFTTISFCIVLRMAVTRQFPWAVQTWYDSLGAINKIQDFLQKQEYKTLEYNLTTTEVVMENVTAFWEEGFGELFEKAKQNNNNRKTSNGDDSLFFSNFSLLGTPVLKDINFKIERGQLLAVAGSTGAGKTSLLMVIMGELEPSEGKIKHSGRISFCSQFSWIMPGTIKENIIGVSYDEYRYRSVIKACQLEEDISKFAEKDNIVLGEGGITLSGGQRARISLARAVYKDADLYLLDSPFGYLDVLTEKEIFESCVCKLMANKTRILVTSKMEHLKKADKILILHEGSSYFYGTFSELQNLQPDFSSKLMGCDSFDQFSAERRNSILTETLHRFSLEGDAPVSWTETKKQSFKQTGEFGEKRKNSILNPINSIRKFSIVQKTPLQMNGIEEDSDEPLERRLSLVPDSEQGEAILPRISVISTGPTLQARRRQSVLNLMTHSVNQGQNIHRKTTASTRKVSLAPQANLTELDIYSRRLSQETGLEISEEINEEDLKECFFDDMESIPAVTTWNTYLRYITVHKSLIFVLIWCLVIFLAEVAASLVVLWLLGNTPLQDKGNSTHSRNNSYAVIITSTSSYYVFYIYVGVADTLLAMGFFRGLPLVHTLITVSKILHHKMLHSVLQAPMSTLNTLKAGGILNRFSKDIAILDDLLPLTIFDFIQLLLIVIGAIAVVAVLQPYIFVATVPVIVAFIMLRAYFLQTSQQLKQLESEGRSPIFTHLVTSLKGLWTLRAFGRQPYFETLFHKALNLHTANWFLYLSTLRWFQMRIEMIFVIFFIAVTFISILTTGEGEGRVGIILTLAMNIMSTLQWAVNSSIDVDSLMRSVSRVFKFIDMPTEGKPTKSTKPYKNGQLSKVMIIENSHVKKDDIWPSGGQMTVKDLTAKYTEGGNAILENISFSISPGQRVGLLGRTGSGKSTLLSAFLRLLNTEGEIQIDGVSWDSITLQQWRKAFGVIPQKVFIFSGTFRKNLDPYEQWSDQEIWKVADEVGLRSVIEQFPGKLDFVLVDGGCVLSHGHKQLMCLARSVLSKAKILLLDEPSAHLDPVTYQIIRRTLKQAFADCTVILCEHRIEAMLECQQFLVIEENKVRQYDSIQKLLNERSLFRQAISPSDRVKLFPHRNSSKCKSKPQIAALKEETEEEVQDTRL

Consider `Cc1cccc(C)c1-c1cc2nc(n1)NS(=O)(=O)c1cccc(c1)C(=O)N(Cc1cncc(N3CCCC[C@H]3C)n1)[C@H](CCC(C)(C)C)CO2` [Compound 1725], for which the “HBE2 Activity at 3 μM (%)” value under setting [1] is listed as “+++ (+++ is >60+)”. In addition, the EC50 (corrector at a range of concentrations with 44 nM potentiator) was below 1 µM. Moreover, where the note is “with 44 nM potentiator”, the Emax is above 60%.

Consider `CC[C@@H](C)Oc1cnc(CN2C(=O)c3cccc(c3)S(=O)(=O)Nc3nc(cc(-c4c(C)cccc4C)n3)OC[C@H]2CC2CCC2)nc1` [Compound 1556], for which, under “3 μM, with 44 nM potentiator”, the “HBE2 Activity at 3 μM (%)” value is on record as “+++ (+++ is >60+)”. As for `Cc1cccc(C)c1-c1cc2nc(n1)NS(=O)(=O)c1cccc(c1)C(=O)N(Cc1cncc(N(C)C3CCC3)n1)[C@H](CC1CC1)CO2` [Compound 1670], the “HBE2 Activity at 3 μM (%)” value (3 μM, with 44 nM potentiator) is reported as “+++ (+++ is >60+)”. Also, under “with 44 nM potentiator”, the EC50 is below 1 µM and the Emax was above 60%. As for `Cc1cccc(C)c1-c1cc2nc(n1)NS(=O)(=O)c1cccc(c1)C(=O)N(Cc1cncc(OC3CCC3)n1)[C@H](CC(C)(C)C)CO2` [Compound 1601], for the setting “3 μM, with 44 nM potentiator”, the “HBE2 Activity at 3 μM (%)” value is reported as “+++ (+++ is >60+)”. Same read-out and setting: for `CC(=O)N(C)CCN(C)c1cncc(CN2C(=O)c3cccc(c3)S(=O)(=O)Nc3nc(cc(-c4c(C)cccc4C)n3)OC[C@H]2CC(C)(C)C)n1` [Compound 1661] the value was “+++ (+++ is >60+)”. Take `Cc1cccc(C)c1-c1cc2nc(n1)NS(=O)(=O)c1cccc(c1)C(=O)N(Cc1cncc(N(C)CC(C)(C)C)n1)[C@H](CCC(C)(C)C)CO2` [Compound 1739]: the “HBE2 Activity at 3 μM (%)” value under setting [1] is on record as “+++ (+++ is >60+)”. As to `CCCN(C)c1cncc(CN2C(=O)c3cccc(c3)S(=O)(=O)Nc3nc(cc(-c4c(C)cccc4C)n3)OC[C@H]2CC(C)(C)C)n1` [Compound 1694], for the setting “3 μM, with 44 nM potentiator”, the “HBE2 Activity at 3 μM (%)” value is given as “+++ (+++ is >60+)”. As for `Cc1cccc(C)c1-c1cc2nc(n1)NS(=O)(=O)c1cccc(c1)C(=O)N(Cc1ccc3nc(C(C)C)n(C)c3n1)[C@H](COC(C)C)CO2` [Compound 1930], the “HBE2 Activity at 3 μM (%)” value under setting [1] is “+++ (+++ is >60+)”.

With `Cc1ccccc1-c1cc2nc(n1)NS(=O)(=O)c1cccc(c1)C(=O)N(Cc1cncc(N(C)C3CCC3)n1)[C@H](CC(C)(C)C)CO2` [Compound 1705], the “HBE2 Activity at 3 μM (%)” value (3 μM, with 44 nM potentiator) was “+++ (+++ is >60+)”. Moreover, under “with 44 nM potentiator”, the EC50 was below 1 µM and the Emax was above 60%. Consider `Cc1cccc(C)c1-c1cc2nc(n1)NS(=O)(=O)c1cccc(c1)C(=O)N(Cc1ncc(OC(C)C)cn1)[C@H]([C@@H](C)C1CC1)CO2` (stereo in doubt) [Compound 1559], for which the “HBE2 Activity at 3 μM (%)” value (3 μM, with 44 nM potentiator) is “+++ (+++ is >60+)”. Regarding `Cc1cccc(C)c1-c1cc2nc(n1)NS(=O)(=O)c1cccc(c1)C(=O)N(Cc1cncc(N(C)C3CCC3)n1)[C@H](C(C)C)CO2` [Compound 1690], under “3 μM, with 44 nM potentiator”, the “HBE2 Activity at 3 μM (%)” value is given as “+++ (+++ is >60+)”. As to `Cc1cccc(C)c1-c1cc2nc(n1)NS(=O)(=O)c1cccc(c1)C(=O)N(Cc1cncc(N3CC(C)(C)[C@H]3C(C)C)n1)[C@H](CC(C)(C)C)CO2` [Compound 1750], under setting [1], the “HBE2 Activity at 3 μM (%)” value is listed as “+++ (+++ is >60+)”. Still for that read-out and setting: next, `Cc1cccc(C)c1-c1cc2nc(n1)NS(=O)(=O)c1cccc(c1)C(=O)N(Cc1cncc(N3CCC[C@H]3C3CC3)n1)[C@H](CCC(C)(C)C)CO2` [Compound 1813]: “+++ (+++ is >60+)”. As for `Cc1cccc(C)c1-c1cc2nc(n1)NS(=O)(=O)c1cccc(c1)C(=O)N(Cc1cncc(N(C)[C@@H]3CC4COCC43)n1)[C@H](CC(C)(C)C)CO2` (stereo in doubt) [Compound 1676], the “HBE2 Activity at 3 μM (%)” value (3 μM, with 44 nM potentiator) was “+++ (+++ is >60+)”. Regarding `Cc1cccc(C)c1-c1cc2nc(n1)NS(=O)(=O)c1cccc(c1)C(=O)N(Cc1cncc(N3CCCC[C@H]3C)n1)[C@H](CC1CC(C)(C)C1)CO2` [Compound 1901], the “HBE2 Activity at 3 μM (%)” value under setting [1] is listed as “+++ (+++ is >60+)”. As for `Cc1cccc(C)c1-c1cc2nc(n1)NS(=O)(=O)c1cccc(c1)C(=O)N(Cc1cncc(N(C)CC(C)C)n1)[C@H](CCC(C)C)CO2` [Compound 1763], the “HBE2 Activity at 3 μM (%)” value under setting [1] was “+++ (+++ is >60+)”.
